pIC50: −log10 of the molar value. Values after ≈ are worked out from the molar mass of the structure shown.
Assays:
[1] = tested on: M. tuberculosis H37Rv ATCC 27294; test: Microplate alamar blue assay (MABA), replicating M. tuberculosis; format: cell-based; conditions: for MIC: Mycobacterium tuberculosis, MIC = lowest concentration giving ≥90% growth inhibition, averaged from triplicates
[2] = tested on: OVCAR4; test: cells; format: cell-based; conditions: Homo sapiens, OVCAR-4, 72 h, read-out: Cytotoxicity LC50 OVCAR4
Method: (§1) Following their identification, compounds 1–5 were assessed for cytotoxicity in two high-grade ovarian cancer cell lines, OVCAR4 and Kuramochi. Potential for selective cytotoxicity was evaluated using two non-cancerous mouse cell lines representing the putative progenitor cells of ovarian cancer, murine ovarian surface epithelial (MOSE) and murine oviductal epithelial (MOE). […] Generally speaking, this para-quinone scaffold is not an attractive lead, as higher toxicity in non-tumorigenic cell lines confers serious overall toxicity.
(§2) Human ovarian OVCAR4 and Kuramochi cancer cells were maintained in RPMI 1640 (11875-093, Life-technologies; Carlsbad, CA, USA) supplemented with 10% FBS (16000-044, Life-technologies; Carlsbad, CA, USA) and 1% penicillin/streptomycin. Non-cancerous murine ovarian surface epithelium (MOSE) and murine oviductal epithelium (MOE) cells were maintained as previously reported. Concentration-response experiments were performed as previously described for 72 h.

[3] = tested on: Kuramochi; test: cells; format: cell-based; conditions: Homo sapiens, 72 h, read-out: Cytotoxicity LC50 Kuramochi
Method: as §1, §2

[4] = tested on: M. tuberculosis H37Rv ATCC 27294; test: Low oxygen recovery assay (LORA), non-replicating M. tuberculosis; format: cell-based; conditions: Mycobacterium tuberculosis
[5] = tested on: OVCAR4, Kuramochi, MOSE and MOE cell lines; test: Cytotoxicity panel of cancerous and non-cancerous cell lines (overall statements, selectivity); format: cell-based; conditions: for Cytotoxicity in the cell line panel (in words): OVCAR4, Kuramochi, MOSE, MOE
Method: as §1, §2

[6] = tested on: panel of Gram-negative and Gram-positive bacteria; parameters: method as in PMID 2925509; conditions: cited from earlier work
[7] = tested on: wide range of cancer cell lines; conditions: previous reports; cited from earlier work
[8] = tested on: L1210 lymphocytic leukemia cells; parameters: method as in PMID 11395569; conditions: L1210 lymphocytic leukemia cells in vitro; read-out: IC50 range, inhibition of tumor cell proliferation and viability; cited from earlier work
[9] = tested on: two fungal species, a human parasite, and several Gram-negative and Gram-positive bacteria; parameters: method as in PMID 7451359, PMID 7451360; conditions: cited from earlier work
[10] = tested on: Eimeria tenella; parameters: method as in PMID 7451359, PMID 7451360; conditions: apicomplexan poultry parasite Eimeria tenella; cited from earlier work

Structure (SMILES) | Activity in MABA (in words) [1] | MIC [1] | CC50 [2] | CC50 [3] | MIC [4] | Cytotoxicity in the cell line panel (in words) [5] | Antibacterial activity (in words) [6] | Inhibition of cancer cell lines (in words) [7] | pIC50 [8] | Biological activity against antimicrobial panel (in words) [9] | Anticoccidial activity (in words) [10] | Greater activity toward Kuramochi ovarian cancer cells ([5]; Kuramochi versus the other cell lines of the panel)
C=C[C@@]1(C)CCC2=C(CC[C@H]3C(C)(C)[C@@H](O)C(=O)C[C@]23C)C1 [Compound 1, isopimara-2-one-3-ol-8,15-diene] | lacked significant activity | 19.4 µg/mL (≈ 64.1 µM) | > 33.1 µM | > 33.1 µM | > 50 µg/mL | not significantly active |  |  |  |  |  | 
Cc1cc(O)c2c(c1)COC1=C2C(=O)c2cccc(O)c2C1=O [Compound 2, lagumycin B] |  | 2.01 µg/mL (≈ 6.52 µM) | > 32.5 µM | > 32.5 µM | 25.7 µg/mL (≈ 83.4 µM) |  |  |  |  |  |  | 
Cc1cc(O)c2c3c(c(O)cc2c1)C(=O)c1c(O)cccc1C3=O [Compound 3, dehydrorabelomycin] |  | 1.01 µg/mL (≈ 3.15 µM) | 11 µM | 6.72 µM | 19.6 µg/mL (≈ 61.2 µM) | non-specifically cytotoxic | no detectable activity | inhibited a wide range of cancer cell lines at micromolar potency |  |  |  | 
Cc1cc(O)c2c3c(ncc2c1)C(=O)c1c(O)cccc1C3=O [Compound 4, phenanthroviridone] |  | 0.72 µg/mL (≈ 2.36 µM) | 4.82 µM | 1.11 µM | 17.8 µg/mL (≈ 58.3 µM) | non-specifically cytotoxic |  |  |  |  |  | 
COc1cc(C)cc2c(=O)oc3c(c12)C(=O)c1cccc(O)c1C3=O [Compound 5, WS-5995 A] | lacked significant activity | 22.7 µg/mL (≈ 67.5 µM) | 127 µM | 18.6 µM | > 50 µg/mL | enhanced cytotoxicity against the Kuramochi cell line when compared to non-tumorigenic cell lines |  |  | 6.19 to 6.62 | no significant biological activity | anticoccidial activity | approximately seven-fold
COc1cccc2c1C(=O)c1c(O)c3c(c(O)c1C2=O)C[C@@](O)(C(=O)CO)C[C@@H]3O[C@H]1C[C@H](N)[C@H](O)[C@H](C)O1 [Doxorubicin, reference compound] |  |  | < 0.078 µM | < 0.078 µM |  |  |  |  |  |  |  | 
